Laboratory results: patent publication US7407775B2, “Method for identifying Listeria monocytogenes and culture medium” (Biomerieux S.A., priority 2000, dated 2008)

Tests used:
Assay type in all cases: cell-based
[1] = test system: Listeria innocua 171; assay: Experiment 3: detecting an esterase activity in liquid medium (API-type strips); parameters: key: —: the symbol “-” corresponds to the absence of color or intensity; 0 corresponds to no activity; 0.1 corresponds to a trace of color; 0.5 corresponds to very pale coloration; 1 corresponds to clear but low-intensity coloration; 1.5 corresponds to a degree of coloration intermediate between scores 1 and 2; 2 corresponds to clear coloration of moderate intensity; 2.5 corresponds to a degree of coloration intermediate between scores 2 and 3; 3 corresponds to intense coloration; 3.5 corresponds to a degree of coloration intermediate between scores 3 and 4; 4 corresponds to very intense coloration; conditions: 37° C.
Protocol: (§1) In Table 1 above, as in the following Tables, C represents the color of the colonies after incubation, I represents the intensity of the color, and the symbol “-” corresponds to the absence of color or intensity; finally, IT defines the incubation time. It should be noted that the intensity of the color is scored on an arbitrary scale but one which is consistent for all the biological specimens and media tested. This scale is valid for this experiment as well as all those that follow. It can be defined in the following way: • 0 corresponds to no activity, • 0.1 corresponds to a trace of color, • 0.5 corresponds to very pale coloration, • 1 corresponds to clear but low-intensity coloration, • 1.5 corresponds to a degree of coloration intermediate between scores 1 and 2, • 2 corresponds to clear coloration of moderate intensity, • 2.5 corresponds to a degree of coloration intermediate between scores 2 and 3, • 3 corresponds to intense coloration, • 3.5 corresponds to a degree of coloration intermediate between scores 3 and 4, • 4 corresponds to very intense coloration.
(§2) These substrates were lyophilized in the wells of API-type strips (Registered Trademark). Before use, the substrates contained in the wells were resuspended in an agar-free Columbia-type inoculation medium. These wells were then inoculated with a suspension (density=2 McFarland) of microorganisms taken from either the Applicant's own collection or the ATCC. The strips were incubated for 8 hours at 37° C. The colonies which grew were examined by eye after 4, 6 and 8 hours of incubation.
(§3) The intensity of the color of the colonies was recorded.

[2] = test system: Listeria monocytogenes 092; assay: as above; parameters: key: —: the symbol “-” corresponds to the absence of color or intensity; 0 corresponds to no activity; 0.1 corresponds to a trace of color; 0.5 corresponds to very pale coloration; 1 corresponds to clear but low-intensity coloration; 1.5 corresponds to a degree of coloration intermediate between scores 1 and 2; 2 corresponds to clear coloration of moderate intensity; 2.5 corresponds to a degree of coloration intermediate between scores 2 and 3; 3 corresponds to intense coloration; 3.5 corresponds to a degree of coloration intermediate between scores 3 and 4; 4 corresponds to very intense coloration; conditions: 37° C.
Protocol: as §1, §2, §3

[3] = test system: Listeria grayi ATCC 19120; assay: as above; parameters: key: —: the symbol “-” corresponds to the absence of color or intensity; 0 corresponds to no activity; 0.1 corresponds to a trace of color; 0.5 corresponds to very pale coloration; 1 corresponds to clear but low-intensity coloration; 1.5 corresponds to a degree of coloration intermediate between scores 1 and 2; 2 corresponds to clear coloration of moderate intensity; 2.5 corresponds to a degree of coloration intermediate between scores 2 and 3; 3 corresponds to intense coloration; 3.5 corresponds to a degree of coloration intermediate between scores 3 and 4; 4 corresponds to very intense coloration; conditions: 37° C.
Protocol: as §1, §2, §3

[4] = test system: Listeria ivanovii 018; assay: as above; parameters: key: —: the symbol “-” corresponds to the absence of color or intensity; 0 corresponds to no activity; 0.1 corresponds to a trace of color; 0.5 corresponds to very pale coloration; 1 corresponds to clear but low-intensity coloration; 1.5 corresponds to a degree of coloration intermediate between scores 1 and 2; 2 corresponds to clear coloration of moderate intensity; 2.5 corresponds to a degree of coloration intermediate between scores 2 and 3; 3 corresponds to intense coloration; 3.5 corresponds to a degree of coloration intermediate between scores 3 and 4; 4 corresponds to very intense coloration; conditions: 37° C.
Protocol: as §1, §2, §3

[5] = test system: Listeria welshimeri 023; assay: as above; parameters: key: —: the symbol “-” corresponds to the absence of color or intensity; 0 corresponds to no activity; 0.1 corresponds to a trace of color; 0.5 corresponds to very pale coloration; 1 corresponds to clear but low-intensity coloration; 1.5 corresponds to a degree of coloration intermediate between scores 1 and 2; 2 corresponds to clear coloration of moderate intensity; 2.5 corresponds to a degree of coloration intermediate between scores 2 and 3; 3 corresponds to intense coloration; 3.5 corresponds to a degree of coloration intermediate between scores 3 and 4; 4 corresponds to very intense coloration; conditions: 37° C.
Protocol: as §1, §2, §3

[6] = test system: Listeria monocytogenes ATCC 19115; assay: as above; parameters: key: —: the symbol “-” corresponds to the absence of color or intensity; 0 corresponds to no activity; 0.1 corresponds to a trace of color; 0.5 corresponds to very pale coloration; 1 corresponds to clear but low-intensity coloration; 1.5 corresponds to a degree of coloration intermediate between scores 1 and 2; 2 corresponds to clear coloration of moderate intensity; 2.5 corresponds to a degree of coloration intermediate between scores 2 and 3; 3 corresponds to intense coloration; 3.5 corresponds to a degree of coloration intermediate between scores 3 and 4; 4 corresponds to very intense coloration; conditions: 37° C.
Protocol: as §1, §2, §3

[7] = test system: Listeria seeligeri 011; assay: as above; parameters: key: —: the symbol “-” corresponds to the absence of color or intensity; 0 corresponds to no activity; 0.1 corresponds to a trace of color; 0.5 corresponds to very pale coloration; 1 corresponds to clear but low-intensity coloration; 1.5 corresponds to a degree of coloration intermediate between scores 1 and 2; 2 corresponds to clear coloration of moderate intensity; 2.5 corresponds to a degree of coloration intermediate between scores 2 and 3; 3 corresponds to intense coloration; 3.5 corresponds to a degree of coloration intermediate between scores 3 and 4; 4 corresponds to very intense coloration; conditions: 37° C.
Protocol: as §1, §2, §3

[8] = test system: Listeria innocua 166; assay: as above; parameters: key: —: the symbol “-” corresponds to the absence of color or intensity; 0 corresponds to no activity; 0.1 corresponds to a trace of color; 0.5 corresponds to very pale coloration; 1 corresponds to clear but low-intensity coloration; 1.5 corresponds to a degree of coloration intermediate between scores 1 and 2; 2 corresponds to clear coloration of moderate intensity; 2.5 corresponds to a degree of coloration intermediate between scores 2 and 3; 3 corresponds to intense coloration; 3.5 corresponds to a degree of coloration intermediate between scores 3 and 4; 4 corresponds to very intense coloration; conditions: 37° C.
Protocol: as §1, §2, §3

[9] = test system: Listeria monocytogenes, Listeria innocua and Listeria ivanovii; assay: Experiment 4: comparison of Listeria strains with pairs of substrates; conditions: for results as saccharidase substrate paired with an esterase substrate: Experiment 4, semi-solid medium
Protocol: as §1
A stock solution of each esterase substrate at a concentration of 40 g/l was made up in a mixture of 40% Dimethylsulfoxide and 60% Tween 20. And a stock solution of each saccharidase substrate was made up in Dimethylsulfoxide. An appropriate volume of the stock solution of the esterase substrate corresponding to each of the pairs described above was added to one of eight Columbia-type media while cooling to obtain a final substrate concentration of 250 mg/l. In parallel, an appropriate volume of the stock solution of the saccharidase substrate corresponding to each of the pairs described above was added to each of the eight media in order to obtain a final concentration of between 100 and 200 mg/l (depending on the substrate). These dishes were divided into three areas and then each area was inoculated with a suspension (density=0.5 McFarland) of microorganisms taken from either the Applicant's own collection or the ATCC. The dishes were incubated for 48 hours at 37° C. The colonies which grew were examined by eye after 24 and 48 hours of incubation.
Both the color and the intensity of the color of the colonies were recorded.

[10] = test system: Listeria species; assay: Experiment 3: differentiation of Listeria species in liquid medium
Protocol: as §1
These substrates were lyophilized in the wells of API-type strips (Registered Trademark). Before use, the substrates contained in the wells were resuspended in an agar-free Columbia-type inoculation medium. […]
as §3

CC(=O)Oc1c[nH]c2ccccc12 [Y-C2, 3-Indolyl acetate]
3: I (intensity of the color) ([1]; IT 4 h) | I (intensity of the color) ([1]; IT 6 h) | I (intensity of the color) ([3]; IT 4 h) | I (intensity of the color) ([4]; IT 4 h) | I (intensity of the color) ([5]; IT 4 h) | I (intensity of the color) ([6]; IT 4 h) | I (intensity of the color) ([7]; IT 4 h) | I (intensity of the color) ([7]; IT 6 h) | I (intensity of the color) ([8]; IT 4 h) | I (intensity of the color) ([8]; IT 6 h)
4: I (intensity of the color) ([1]; IT 8 h) | I (intensity of the color) ([2]; IT 4 h) | I (intensity of the color) ([2]; IT 6 h) | I (intensity of the color) ([2]; IT 8 h) | I (intensity of the color) ([3]; IT 6 h) | I (intensity of the color) ([3]; IT 8 h) | I (intensity of the color) ([4]; IT 6 h) | I (intensity of the color) ([4]; IT 8 h) | I (intensity of the color) ([5]; IT 6 h) | I (intensity of the color) ([5]; IT 8 h) | I (intensity of the color) ([6]; IT 6 h) | I (intensity of the color) ([6]; IT 8 h) | I (intensity of the color) ([7]; IT 8 h) | I (intensity of the color) ([8]; IT 8 h)

CCCCCCCCC(=O)Oc1c[nH]c2ccc(Br)c(Cl)c12 [5-Bromo-4-chloro-3-indolyl nonanoate]
best contrast: contrast ([9]; together with a saccharidase substrate based on 6-Chloro-3-indolyl, whatever the target activity)

CC(=O)Oc1c[nH]c2ccc(Br)c(Cl)c12 [X-C2, 5-Bromo-4-chloro-3-indolyl acetate]
2: I (intensity of the color) ([3]; IT 4 h) | I (intensity of the color) ([3]; IT 6 h)
4: I (intensity of the color) ([1]; IT 4 h) | I (intensity of the color) ([1]; IT 6 h) | I (intensity of the color) ([1]; IT 8 h) | I (intensity of the color) ([2]; IT 6 h) | I (intensity of the color) ([2]; IT 8 h) | I (intensity of the color) ([4]; IT 8 h) | I (intensity of the color) ([5]; IT 6 h) | I (intensity of the color) ([5]; IT 8 h) | I (intensity of the color) ([6]; IT 6 h) | I (intensity of the color) ([6]; IT 8 h) | I (intensity of the color) ([7]; IT 8 h) | I (intensity of the color) ([8]; IT 6 h) | I (intensity of the color) ([8]; IT 8 h)
3: I (intensity of the color) ([2]; IT 4 h) | I (intensity of the color) ([3]; IT 8 h) | I (intensity of the color) ([4]; IT 4 h) | I (intensity of the color) ([4]; IT 6 h) | I (intensity of the color) ([5]; IT 4 h) | I (intensity of the color) ([6]; IT 4 h) | I (intensity of the color) ([7]; IT 4 h) | I (intensity of the color) ([7]; IT 6 h) | I (intensity of the color) ([8]; IT 4 h)

CCCC(=O)Oc1c[nH]c2ccc(Br)c(Cl)c12 [X-C4, 5-Bromo-4-chloro-3-indolyl butyrate]
0.5: I (intensity of the color) ([1]; IT 4 h) | I (intensity of the color) ([3]; IT 4 h) | I (intensity of the color) ([4]; IT 4 h) | I (intensity of the color) ([5]; IT 4 h) | I (intensity of the color) ([7]; IT 4 h) | I (intensity of the color) ([8]; IT 4 h)
gave a contrast in color: differentiation between L. monocytogenes and other species belonging to the same genus [10]
2: I (intensity of the color) ([1]; IT 8 h) | I (intensity of the color) ([2]; IT 4 h) | I (intensity of the color) ([2]; IT 6 h) | I (intensity of the color) ([3]; IT 8 h) | I (intensity of the color) ([4]; IT 8 h) | I (intensity of the color) ([5]; IT 8 h) | I (intensity of the color) ([6]; IT 6 h) | I (intensity of the color) ([7]; IT 8 h) | I (intensity of the color) ([8]; IT 8 h)
1: I (intensity of the color) ([1]; IT 6 h) | I (intensity of the color) ([3]; IT 6 h) | I (intensity of the color) ([4]; IT 6 h) | I (intensity of the color) ([5]; IT 6 h) | I (intensity of the color) ([6]; IT 4 h) | I (intensity of the color) ([7]; IT 6 h) | I (intensity of the color) ([8]; IT 6 h)
3: I (intensity of the color) ([2]; IT 8 h) | I (intensity of the color) ([6]; IT 8 h)

CC(=O)N[C@H]1[C@H](Oc2c[nH]c3cc(Cl)ccc23)O[C@H](CO)[C@@H](O)[C@@H]1O [6-Chloro-3-indolyl-N-acetyl-β-D-glucosaminide]
best results: results as saccharidase substrate paired with an esterase substrate [9]

OC[C@H]1O[C@@H](Oc2c[nH]c3cc(Cl)ccc23)[C@H](O)[C@@H](O)[C@@H]1O [6-Chloro-3-indolyl-β-D-glucoside]
best results: results as saccharidase substrate paired with an esterase substrate [9]

OC[C@H]1O[C@H](Oc2c[nH]c3cc(Cl)ccc23)[C@@H](O)[C@@H](O)[C@@H]1O [6-Chloro-3-indolyl-α-D-mannoside]
best results: results as saccharidase substrate paired with an esterase substrate [9]
